Experimental data as given in PMC11540844, “Enhancing transcription–replication conflict targets ecDNA-positive cancers” (Nature, 2024).
“And” between values parts separate entries of the source, which are not always exact repeats. Equal entries are not always repeated. Where two headings read alike, the source gives them in different places.

How the values were obtained:
SNU16 cells = test: Cell viability (CellTiter-Glo); format: cell-based, human; details: for 3-day Cell Titer Glo relative signal (Source data Ext Fig 10b): Control SNU16, replicates; for IC50: Homo sapiens
Method: Cell viability assay was performed using CellTiter-Glo (Promega, catalgoue no. G8461) as previously described. Briefly, cells were seeded into a 384-well plate one day before adding inhibitors. Equal volumes of vehicles or drugs diluted at indicated concentration were added into each well the next day, and the cells were incubated for three days. On the third day, after equilibrating plate and CellTiter-Glo reagent at room temperature for 30 min, reagent was added into each well and incubated for 15 min at room temperature. Luminescence was measured using a Synergy 2 microplate reader. Four biological replicates were performed for each condition. Data analysis was performed with GraphPad Prism (v.9.1.0). […]

[1] = test system: infigratinib-resistant SNU16 cells; test: 3-day Cell Titer Glo in SNU16 cells after 8 weeks of infigratinib; format: cell-based, human; details: for 3-day Cell Titer Glo relative signal (Source data Ext Fig 10b): infi-intermed 8 wk SNU16, replicates
Description: (§1) Nuclear staining is illustrated using DAPI (blue). […] Scale bar represents 10 µm. (b) Timeline of experimental overview. […] Lane 1 (control) is from a non-contiguous portion of the gel from lanes 2 and 3 (infigratinib treated samples).

SNU16 xenograft tumours = test: SNU16 xenograft tumour model, tumour volume; format: in vivo, mice; details: for tumour volume, individual mice: Infigratinib 15 mg/kg PO QD
Method: Animal experiments were performed in accordance with protocols approved by the Charles River Accelerator and Development Lab (CRADL) Institutional Animal Care and Use Committee (protocol no. EB17-010-066). Mice were socially housed in individually ventilated cages on a 12/12 h light/dark cycle with temperatures between 65 and 75 °F and 30–50% humidity. The SNU16 gastric cancer cell line was purchased from ATCC (catalogue no. CRL5974) and maintained in Roswell Park Memorial Institute growth medium (Gibco, catalogue no. 22400-089) supplemented with 10% FBS (Omega Scientific, catalogue no. FB-02). To establish tumours, 1 × 10^6 SNU16 cells in 200 µl of a 1:1 mixture of PBS and Matrigel (Corning, catalogue no. 354234) were given by subcutaneous injection into the right flank of 9-week-old female severe combined immunodeficient beige mice (Envigo, strain code 186). Tumour measurements were taken two to three times per week and body weights were taken daily. Tumour volume measurements were obtained using digital calipers and tumour volumes (mm^3) were determined using the formula: tumour volume = (L × W2)/2, where L is the length/largest tumour diameter and W is the width/shortest tumour diameter, with all tumours collected before reaching 1,500 mm^3. Animals (eight mice per group, which historically allowed for significance determination between vehicle and infigratinib) were randomly assigned to unblinded treatment with vehicle, infigratinib (15 mg kg^−^1 oral (PO) once-daily (QD)), BBI-2779 (30 mg kg^−^1 PO every other day (Q2D)) or the combination of BBI-2779 and infigratinib once average tumour volume was 285 (±10)/mean (±s.e.m.) mm^3. One vehicle tumour was taken down on day 22; the mouse was sacrificed due to large tumour volume. Infigratinib was formulated in a 1:1 mixture of sodium acetate buffer, pH 4.6 and polyethylene glycol 300. BBI-2779 was formulated in 0.5% methylcellulose (Sigma-Aldrich, catalogue no. M0512) and 0.2% Tween 80 (AG Scientific, catalogue no. T-2835) in HyPure Molecular Biology Grade Water (HyClone, catalogue no. SH30538.02). […] Animals were sacrificed 6 h, 24 h or 36 h after the last dose, and tumours were collected for western blot or copy number analysis.

FGFR2 copy number = FGFR2 copy number by qPCR on xenograft tumour DNA; format: in vivo, mice; details: infigratinib 15 mg kg-1 PO QD
Method: For copy number analysis, tumours were cut into 10–20 mg pieces and flash-frozen in liquid nitrogen. DNA was extracted using the QIAcube DNA Extraction Kit (Qiagen, no. 51331). Briefly, a mixture of buffer ATL and proteinase K was added to the frozen tumour pieces, and they were set out to equilibrate to room temperature. Tumours were then vortexed for 30 s and placed into an incubator at 56 °C to digest overnight. The next morning, an additional 150 μl of buffer ATL was added and samples vortexed for an additional 30 s to reduce the viscosity of the samples before transfer to the S block. Qiagen protocol for the 96 QIAcube HT was followed for the remainder of the DNA isolation. Purified DNA was quantified for the presence of double-stranded DNA on the QIAxpert (Qiagen, catalogue no. 9002340). The DNA was diluted to 5 ng µl^−^1 (5× working stock) in RNase/DNase free water (Thermo Fisher Scientific, catalogue no. 10977015) and 2 µl was loaded into a 384-well plate. […]

[2] = test system: FGFR2 copy number in SNU16 cells; test: qPCR quantification of FGFR2 oncogene number in SNU16 cells; format: cell-based, human; details: 8.0 weeks of infigratinib
Description: as §1

- IC50 (SNU16 cells; SNU-16, 72 h, control SNU16 cells, 3-day Cell Titer Glo, Extended Data Fig. 10b, read-out: "IC50" control): 7.85 nM
- IC50 (SNU16 cells; SNU-16, SNU16 cells, Extended Data Fig. 10, read-out: IC50 (EC50 dose used for 8 weeks of treatment)): 25 nM
- IC50 ([1]; Homo sapiens, SNU-16, SNU16 after 8 weeks of infigratinib, 3-day Cell Titer Glo): 30.1 nM
Compound: CCN1CCN(c2ccc(Nc3cc(N(C)C(=O)Nc4c(Cl)c(OC)cc(OC)c4Cl)ncn3)cc2)CC1 [infigratinib]
- 3-day Cell Titer Glo relative signal (Source data Ext Fig 10b) (SNU16 cells; 0.152416 nM infigratinib): 1.0456 and 1.0233
- 3-day Cell Titer Glo relative signal (Source data Ext Fig 10b) (SNU16 cells; 0.457247 nM infigratinib): 0.9513 and 0.976
- 3-day Cell Titer Glo relative signal (Source data Ext Fig 10b) (SNU16 cells; 1.37174 nM infigratinib): 0.9221 and 0.9386
- 3-day Cell Titer Glo relative signal (Source data Ext Fig 10b) (SNU16 cells; 4.11523 nM infigratinib): 0.7516 and 0.791
- 3-day Cell Titer Glo relative signal (Source data Ext Fig 10b) (SNU16 cells; 12.3457 nM infigratinib): 0.4353 and 0.4209
- 3-day Cell Titer Glo relative signal (Source data Ext Fig 10b) (SNU16 cells; 37.037 nM infigratinib): 0.1753 and 0.1537
- 3-day Cell Titer Glo relative signal (Source data Ext Fig 10b) (SNU16 cells; 111.111 nM infigratinib): 0.1409 and 0.1325
- 3-day Cell Titer Glo relative signal (Source data Ext Fig 10b) (SNU16 cells; 333.333 nM infigratinib): 0.1569 and 0.1376
- 3-day Cell Titer Glo relative signal (Source data Ext Fig 10b) (SNU16 cells; 1000 nM infigratinib): 0.1554 and 0.1292
- 3-day Cell Titer Glo relative signal (Source data Ext Fig 10b) ([1]; 0.152416 nM infigratinib): 0.9851 and 1.028
- 3-day Cell Titer Glo relative signal (Source data Ext Fig 10b) ([1]; 0.457247 nM infigratinib): 1.032 and 1.122
- 3-day Cell Titer Glo relative signal (Source data Ext Fig 10b) ([1]; 1.37174 nM infigratinib): 1.185 and 1.134
- 3-day Cell Titer Glo relative signal (Source data Ext Fig 10b) ([1]; 4.11523 nM infigratinib): 1.087 and 1.319
- 3-day Cell Titer Glo relative signal (Source data Ext Fig 10b) ([1]; 12.3457 nM infigratinib): 1.111 and 1.106
- 3-day Cell Titer Glo relative signal (Source data Ext Fig 10b) ([1]; 37.037 nM infigratinib): 0.3322 and 0.3782
- 3-day Cell Titer Glo relative signal (Source data Ext Fig 10b) ([1]; 111.111 nM infigratinib): 0.158 and 0.1671
- 3-day Cell Titer Glo relative signal (Source data Ext Fig 10b) ([1]; 333.333 nM infigratinib): 0.14 and 0.158
- 3-day Cell Titer Glo relative signal (Source data Ext Fig 10b) ([1]; 1000 nM infigratinib): 0.1637 and 0.1685
- tumour volume, individual mice (SNU16 xenograft tumours; day of study 1): 275.78 mm^3 and 318.63 mm^3 and 234.6 mm^3 and 333.76 mm^3 and 272.35 mm^3 and 399.19 mm^3 and 215.35 mm^3 and 244.48 mm^3
- tumour volume, individual mice (SNU16 xenograft tumours; day of study 5): 207 mm^3 and 207.01 mm^3 and 194.06 mm^3 and 114.59 mm^3 and 223.51 mm^3 and 272.2 mm^3 and 162.32 mm^3 and 141.42 mm^3
- tumour volume, individual mice (SNU16 xenograft tumours; day of study 8): 138.07 mm^3 and 126.44 mm^3 and 146.81 mm^3 and 70.82 mm^3 and 180.25 mm^3 and 231.85 mm^3 and 107.33 mm^3 and 100.66 mm^3
- tumour volume, individual mice (SNU16 xenograft tumours; day of study 11): 156.25 mm^3 and 176.04 mm^3 and 166.7 mm^3 and 123.46 mm^3 and 218.18 mm^3 and 282.27 mm^3 and 116.93 mm^3 and 111.73 mm^3
- tumour volume, individual mice (SNU16 xenograft tumours; day of study 13): 172.17 mm^3 and 176.87 mm^3 and 188.21 mm^3 and 133.63 mm^3 and 270.33 mm^3 and 330.51 mm^3 and 108.35 mm^3 and 124.21 mm^3
- tumour volume, individual mice (SNU16 xenograft tumours; day of study 15): 126.09 mm^3 and 205.17 mm^3 and 263.36 mm^3 and 166 mm^3 and 337.92 mm^3 and 367.94 mm^3 and 166.72 mm^3 and 154.6 mm^3
- tumour volume, individual mice (SNU16 xenograft tumours; day of study 18): 157.95 mm^3 and 204.33 mm^3 and 255.64 mm^3 and 193.27 mm^3 and 380.93 mm^3 and 448.61 mm^3 and 202.33 mm^3 and 176.11 mm^3
- tumour volume, individual mice (SNU16 xenograft tumours; day of study 20): 165.11 mm^3 and 203.59 mm^3 and 221.67 mm^3 and 192.93 mm^3 and 417.82 mm^3 and 479.35 mm^3 and 231.86 mm^3 and 168.05 mm^3
- tumour volume, individual mice (SNU16 xenograft tumours; day of study 22): 223.01 mm^3 and 251.01 mm^3 and 223.64 mm^3 and 246.07 mm^3 and 397.26 mm^3 and 479.73 mm^3 and 254.62 mm^3 and 184.76 mm^3
- tumour volume, individual mice (SNU16 xenograft tumours; day of study 25): 231.38 mm^3 and 244.62 mm^3 and 333.8 mm^3 and 257.4 mm^3 and 426.98 mm^3 and 499.94 mm^3 and 237.29 mm^3 and 196.21 mm^3
- tumour volume, individual mice (SNU16 xenograft tumours; day of study 27): 227.44 mm^3 and 236.39 mm^3 and 325 mm^3 and 271.28 mm^3 and 505.17 mm^3 and 681.55 mm^3 and 273.5 mm^3 and 238.76 mm^3
- mean per cent tumour growth inhibition (SNU16 xenograft tumours; infigratinib 15 mg kg^−1 PO QD, day 25, vs vehicle, P < 0.0005): 97%
- FGFR2 copy number by qPCR on tumour DNA, individual tumours (FGFR2 copy number): 356.837 and 338.53 and 324.931 and 257.5 and 276.141 and 331.223 and 308.687 and 333.495
- FGFR2 CN [2]: 332.123
